Experiment: Measurement of concentration of molecules dissolved in the continuous phase of the standard AuNP@MUA colloid (centrifugation, RP-HPLC with UV-visible detection)
Type: physicochemical
Conditions: n=3; for concentration in the control samples, equivalent to the continuous phase of the colloid: control samples: particle-free solution extracted from the colloid, 2.00 μM molecule added; for concentration of molecules dissolved in the continuous phase of the standard AuNP@MUA colloid: test samples, after incorporating 2.00 μM of the molecule into the colloid, centrifuged 24,000×g 15 min, average
Procedure: In general terms, the concentration of molecules dissolved in a fraction of the particle free colloid is measured. To evaluate this, in a first part the method obtains a test sample and a control sample. The test sample contains molecules dissolved in a colloid, and the control sample contains the same concentration of molecules dissolved in a particle-free solution extracted from the same colloid used to obtain the test sample. […] Subsequently, the samples are exposed to a condition that allows the particles of the test sample to be concentrated. […] Then, a particle-free volume is recovered from the test sample. The fraction recovered is equivalent to the continuous phase of the colloid and includes the effect of the interaction between molecules and particles. Finally, the concentration of molecules dissolved in the continuous phase of the colloid is measured using equation 1:
[formula] where [FC] corresponds to the concentration of molecules dissolved in the continuous phase of a colloid, [ ]0 corresponds to the value of the concentration of molecules used during the sampling steps, @mp corresponds to the empirical value of a parameter proportional to the number of molecules contained in a volume of particle-free test sample, and @mc corresponds to the empirical value of the same parameter proportional to the number of molecules contained in a volume of control sample. The concentration value obtained from this equation is equivalent to the concentration of molecules dissolved in the continuous phase of the colloid. […]
[formula] • where [FC] corresponds to the concentration of molecules dissolved in the continuous phase of a colloid, [ ]0 corresponds to the value of the concentration of molecules used during the sampling steps, @mp corresponds to the empirical value of a parameter proportional to the number of molecules contained in a volume of particle-free test sample obtained in step f), and @mc corresponds to the empirical value of the same parameter, but measured in the control sample obtained in step g).

concentration in the control samples, equivalent to the continuous phase of the colloid	concentration of molecules dissolved in the continuous phase of the standard AuNP@MUA colloid	Structure (SMILES)
2000 nM	1170 nM	CN(C)c1ccc2nc3ccc(=[N+](C)C)cc-3sc2c1 [methylene blue]
2000 nM	2000 nM	CN(C)c1ccc(N=Nc2ccc(S(=O)(=O)[O-])cc2)cc1.[Na+] [methyl orange]

— patent US11680885B2, “Method, process, composition and kit for measuring concentration of molecules dissolved in the continuous phase of a colloid” (UNIVERSIDAD TÉCNICA FEDERICO SANTA MARÍA, priority 2017, dated 2023)
